Experiments:
Assay in all cases: relative viability (nuclei count vs DMSO), 5 days (fraction); higher = more cells survive
[1] = tested on: EKVX
Outline: (§1)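 Values are medians from duplicate plates. Each reflects relative viability, defined as the nuclei count of treated wells over that of vehicle wells. Lung cancer cell lines in 1536-well plates were pin-tool dosed one day after seeding with one drug alone or with a fixed anchor-drug dose plus five library-drug doses (not always all listed) in √10 steps, then fixed, stained and imaged at 4× after 5 days.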

[2] = tested on: NCI-H1648
Outline: as §1

[3] = tested on: HCC-44
Outline: as §1

[4] = tested on: NCI-H1755
Outline: as §1

[5] = tested on: NCI-H1395
Outline: as §1

[6] = tested on: UMC-11
Outline: as §1

[7] = tested on: HCC-15
Outline: as §1

[8] = tested on: LCLC-103H
Outline: as §1

[9] = tested on: IA-LM
Outline: as §1

[10] = tested on: A549
Outline: as §1

[11] = tested on: NCI-H1299
Outline: as §1

[12] = tested on: Calu-6
Outline: as §1

[13] = tested on: EBC-1
Outline: as §1

[14] = tested on: NCI-H1703
Outline: as §1

SMILES: O=c1cc(N2CCOCC2)oc2c(-c3cccc4c3sc3ccccc34)cccc12 + CC(=O)Nc1cccc(-n2c(=O)n(C3CC3)c(=O)c3c(Nc4ccc(I)cc4F)n(C)c(=O)c(C)c32)c1 [Trametinib] (partner 0.02 µM)
- relative viability ([1]; first compound 0.01 µM): 0.299
- relative viability ([1]; first compound 0.03162 µM): 0.312
- relative viability ([1]; first compound 0.1 µM): 0.337
- relative viability ([1]; first compound 0.3162 µM): 0.321
- relative viability ([1]; first compound 1 µM): 0.303
- relative viability ([2]; first compound 0.03162 µM): 0.471
- relative viability ([2]; first compound 0.1 µM): 0.5
- relative viability ([2]; first compound 0.3162 µM): 0.446
- relative viability ([2]; first compound 1 µM): 0.483
- relative viability ([3]; first compound 0.01 µM): 1.04
- relative viability ([3]; first compound 0.03162 µM): 1.06
- relative viability ([3]; first compound 0.1 µM): 1.02
- relative viability ([3]; first compound 0.3162 µM): 1.04
- relative viability ([3]; first compound 1 µM): 1.03
- relative viability ([4]; first compound 0.01 µM): 0.807
- relative viability ([4]; first compound 0.03162 µM): 0.83
- relative viability ([4]; first compound 0.1 µM): 0.81
- relative viability ([4]; first compound 0.3162 µM): 0.741
- relative viability ([4]; first compound 1 µM): 0.819
- relative viability ([5]; first compound 0.03162 µM): 1.1
- relative viability ([5]; first compound 0.1 µM): 1.02
- relative viability ([5]; first compound 0.3162 µM): 1.07
- relative viability ([5]; first compound 1 µM): 1.01
- relative viability ([6]; first compound 0.01 µM): 0.734
- relative viability ([6]; first compound 0.03162 µM): 0.741
- relative viability ([6]; first compound 0.1 µM): 0.773
- relative viability ([6]; first compound 0.3162 µM): 0.756
- relative viability ([6]; first compound 1 µM): 0.832
- relative viability ([7]; first compound 0.01 µM): 0.384
- relative viability ([7]; first compound 0.03162 µM): 0.388
- relative viability ([7]; first compound 0.1 µM): 0.288
- relative viability ([7]; first compound 0.3162 µM): 0.368
- relative viability ([7]; first compound 1 µM): 0.364
- relative viability ([8]; first compound 0.01 µM): 0.712
- relative viability ([8]; first compound 0.03162 µM): 0.698
- relative viability ([8]; first compound 0.1 µM): 0.678
- relative viability ([8]; first compound 0.3162 µM): 0.652
- relative viability ([8]; first compound 1 µM): 0.663

SMILES: COc1nc(C)cnc1NS(=O)(=O)c1cccnc1-c1ccc(-c2nnco2)cc1 [Zibotentan] + CS(=O)(=O)N1CCN(Cc2cc3nc(-c4cccc5[nH]ncc45)nc(N4CCOCC4)c3s2)CC1 [Pictilisib] (partner 1 µM)
- relative viability ([9]; first compound 0.253 µM): 0.312
- relative viability ([9]; first compound 0.8 µM): 0.328
- relative viability ([9]; first compound 2.53 µM): 0.301
- relative viability ([1]; first compound 0.08 µM): 0.465
- relative viability ([1]; first compound 0.253 µM): 0.451
- relative viability ([1]; first compound 0.8 µM): 0.439
- relative viability ([1]; first compound 2.53 µM): 0.453
- relative viability ([10]; first compound 0.08 µM): 0.478
- relative viability ([10]; first compound 0.253 µM): 0.388
- relative viability ([10]; first compound 0.8 µM): 0.57
- relative viability ([10]; first compound 2.53 µM): 0.519
- relative viability ([11]; first compound 0.08 µM): 0.911
- relative viability ([11]; first compound 0.253 µM): 0.777
- relative viability ([11]; first compound 0.8 µM): 0.773
- relative viability ([11]; first compound 2.53 µM): 0.661
- relative viability ([3]; first compound 0.08 µM): 0.591
- relative viability ([3]; first compound 0.253 µM): 0.625
- relative viability ([3]; first compound 0.8 µM): 0.607
- relative viability ([3]; first compound 2.53 µM): 0.784
- relative viability ([4]; first compound 0.08 µM): 0.444
- relative viability ([4]; first compound 0.253 µM): 0.461
- relative viability ([4]; first compound 0.8 µM): 0.382
- relative viability ([4]; first compound 2.53 µM): 0.47
- relative viability ([5]; first compound 0.08 µM): 0.789
- relative viability ([5]; first compound 0.253 µM): 0.546
- relative viability ([5]; first compound 0.8 µM): 0.606
- relative viability ([5]; first compound 2.53 µM): 0.541
- relative viability ([12]; first compound 0.08 µM): 0.868
- relative viability ([12]; first compound 0.253 µM): 0.83
- relative viability ([12]; first compound 0.8 µM): 0.881
- relative viability ([12]; first compound 2.53 µM): 1.03
- relative viability ([6]; first compound 0.08 µM): 0.746
- relative viability ([6]; first compound 0.253 µM): 0.809
- relative viability ([6]; first compound 0.8 µM): 0.837
- relative viability ([6]; first compound 2.53 µM): 0.777
- relative viability ([13]; first compound 0.08 µM): 0.369
- relative viability ([13]; first compound 0.253 µM): 0.435
- relative viability ([13]; first compound 0.8 µM): 0.486
- relative viability ([13]; first compound 2.53 µM): 0.389
- relative viability ([7]; first compound 0.08 µM): 0.763
- relative viability ([7]; first compound 0.253 µM): 0.667
- relative viability ([7]; first compound 0.8 µM): 0.687
- relative viability ([7]; first compound 2.53 µM): 0.817
- relative viability ([8]; first compound 0.08 µM): 0.681
- relative viability ([8]; first compound 0.253 µM): 0.558
- relative viability ([8]; first compound 0.8 µM): 0.55
- relative viability ([8]; first compound 2.53 µM): 0.608
- relative viability ([14]; first compound 0.08 µM): 0.232
- relative viability ([14]; first compound 0.253 µM): 0.272
- relative viability ([14]; first compound 0.8 µM): 0.26
- relative viability ([14]; first compound 2.53 µM): 0.252

Reference: the supplement of paper PMC10307832
